Converted amounts (≈) assume the structure as drawn. Values belong to the compound of their own block, whether it stands above or below them. The source made the active and inactive calls. The rule behind the calls is not given here.
Columns and labels:
Leishmania infantum [1] = assay: Antileishmanial activity against Leishmania infantum infected in BALB/c mouse model of visceral leishmaniasis assessed as footpad lesion development at 50 mg/kg/day, IM administered for 21 days and measured after 9 weeks by Giemsa staining based analysis (reference value: 22.75 +/- 0.71); type: functional; conditions: time 21 day
L929 = assay: (§1) Cytotoxicity against mouse L929 cells by alamar blue method; type: toxicity, cell-based; conditions: l929
[2] = as §1; type: toxicity, cell-based; conditions: mouse, L929 cells
Leishmania infantum [3] = assay: Antileishmanial activity against Leishmania infantum infected in BALB/c mouse model of cutaneous leishmaniasis assessed as footpad lesion development at 50 mg/kg/day, ID administered for 21 days and measured after 20 weeks by Giemsa staining based analysis (reference value: 4.54 +/- 0.04); type: functional; conditions: time 21 day
Leishmania infantum [4] = assay: Antileishmanial activity against Leishmania infantum infected in BALB/c mouse model of cutaneous leishmaniasis assessed as footpad lesion development at 50 mg/kg/day, ID administered for 21 days and measured after 8 weeks by Giemsa staining based analysis (reference value: 3.13 +/- 0.03); type: functional; conditions: time 21 day
Leishmania infantum [5] = assay: Antileishmanial activity against Leishmania infantum infected in BALB/c mouse model of cutaneous leishmaniasis assessed as parasite growth in liver at 50 mg/kg/day, ID administered for 21 days; type: functional, organism-based; conditions: time 21.0 day
Leishmania infantum [6] = assay: Antileishmanial activity against Leishmania infantum infected in BALB/c mouse model of visceral leishmaniasis assessed as parasite growth in liver at 50 mg/kg/day, IM administered for 21 days; type: functional, organism-based; conditions: time 21.0 day
Leishmania infantum [7] = assay: Antileishmanial activity against Leishmania infantum infected in BALB/c mouse model of cutaneous leishmaniasis assessed as footpad lesion development at 50 mg/kg/day, ID administered for 21 days and measured after 4 weeks by Giemsa staining based analysis (reference value: 1.90 +/- 0.03); type: functional; conditions: time 21 day
Leishmania infantum [8] = assay: Antileishmanial activity against Leishmania infantum MHOM/TN/1980/IPT1 incubated for 48 hrs by XTT method; type: functional, organism-based; conditions: MHOM/TN/1980/IPT1, 48 h
Leishmania tropica = assay: Antileishmanial activity against Leishmania tropica MHOM/A7/1974/SAF-K27 incubated for 48 hrs by XTT method; type: functional, organism-based; conditions: MHOM/A7/1974/SAF-K27, 48 h
Leishmania infantum [9] = assay: Antileishmanial activity against Leishmania infantum infected in BALB/c mouse model of cutaneous leishmaniasis assessed as footpad lesion development at 50 mg/kg/day, ID administered for 21 days and measured after 32 weeks by Giemsa staining based analysis (reference value: 4.91 +/- 0.01); type: functional; conditions: time 21 day
Leishmania infantum [10] = assay: Antileishmanial activity against Leishmania infantum infected in BALB/c mouse model of cutaneous leishmaniasis assessed as footpad lesion development at 50 mg/kg/day, ID administered for 21 days and measured after 14 weeks by Giemsa staining based analysis (reference value: 3.88 +/- 0.03); type: functional; conditions: time 21 day
Leishmania infantum [11] = assay: Antileishmanial activity against Leishmania infantum infected in BALB/c mouse model of cutaneous leishmaniasis assessed as footpad lesion development at 50 mg/kg/day, ID administered for 21 days and measured after 24 weeks by Giemsa staining based analysis (reference value: 4.90 +/- 0.02); type: functional; conditions: time 21 day
Pteridine reductase 1 = biological target: T1, Pteridine reductase 1 (Leishmania major, UniProt Q01782); assay: Inhibition of recombinant Leishmania major PTR1 expressed in Escherichia coli BL21 using folic acid as substrate in presence of NADPH
T1 sequence (Q01782 whole entry): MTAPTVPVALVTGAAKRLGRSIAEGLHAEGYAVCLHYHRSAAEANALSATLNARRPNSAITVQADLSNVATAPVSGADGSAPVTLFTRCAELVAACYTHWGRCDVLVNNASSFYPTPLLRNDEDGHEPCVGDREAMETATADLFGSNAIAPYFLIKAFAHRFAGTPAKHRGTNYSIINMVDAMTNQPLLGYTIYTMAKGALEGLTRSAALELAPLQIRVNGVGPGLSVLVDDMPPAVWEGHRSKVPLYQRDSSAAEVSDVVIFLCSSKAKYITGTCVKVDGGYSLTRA

Leishmania infantum [12] = assay: Antileishmanial activity against Leishmania infantum infected in BALB/c mouse model of cutaneous leishmaniasis assessed as footpad lesion development at 50 mg/kg/day, ID administered for 21 days and measured after 16 weeks by Giemsa staining based analysis (reference value: 4.20 +/- 0.03); type: functional; conditions: time 21 day
Leishmania infantum [13] = assay: Antileishmanial activity against Leishmania infantum infected in BALB/c mouse model of cutaneous leishmaniasis assessed as footpad lesion development at 50 mg/kg/day, ID administered for 21 days and measured after 10 weeks by Giemsa staining based analysis (reference value: 3.40 +/- 0.03); type: functional; conditions: time 21 day
Leishmania infantum [14] = assay: Antileishmanial activity against Leishmania infantum infected in BALB/c mouse model of cutaneous leishmaniasis assessed as parasite growth in foodpad at 50 mg/kg/day, ID administered for 21 days; type: functional, organism-based; conditions: time 21.0 day
Leishmania infantum [15] = assay: Antileishmanial activity against Leishmania infantum infected in BALB/c mouse model of cutaneous leishmaniasis assessed as footpad lesion development at 50 mg/kg/day, ID administered for 21 days and measured after 2 weeks by Giemsa staining based analysis (reference value: 1.61 +/- 0.03); type: functional; conditions: time 21 day
Leishmania infantum [16] = assay: Antileishmanial activity against Leishmania infantum infected in BALB/c mouse model of cutaneous leishmaniasis assessed as footpad lesion development at 50 mg/kg/day, ID administered for 21 days and measured after 18 weeks by Giemsa staining based analysis (reference value: 4.42 +/- 0.03); type: functional; conditions: time 21 day
Leishmania infantum [17] = assay: Antileishmanial activity against Leishmania infantum infected in BALB/c mouse model of visceral leishmaniasis assessed as footpad lesion development at 50 mg/kg/day, IM administered for 21 days and measured after 3 weeks by Giemsa staining based analysis (reference value: 28.94 +/- 0.59); type: functional; conditions: time 21 day
Leishmania infantum [18] = assay: Antileishmanial activity against Leishmania infantum infected in BALB/c mouse model of cutaneous leishmaniasis assessed as footpad lesion development at 50 mg/kg/day, ID administered for 21 days and measured after 30 weeks by Giemsa staining based analysis (reference value: 4.92 +/- 0.01); type: functional; conditions: time 21 day
Leishmania infantum [19] = assay: Antileishmanial activity against Leishmania infantum infected in BALB/c mouse model of visceral leishmaniasis assessed as footpad lesion development at 50 mg/kg/day, IM administered for 21 days and measured after 1 week by Giemsa staining based analysis (reference value: 30.43 +/- 0.60); type: functional; conditions: time 21 day
Leishmania infantum [20] = assay: Antileishmanial activity against Leishmania infantum infected in BALB/c mouse model of cutaneous leishmaniasis assessed as footpad lesion development at 50 mg/kg/day, ID administered for 21 days and measured after 22 weeks by Giemsa staining based analysis (reference value: 4.71 +/- 0.04); type: functional; conditions: time 21 day
Leishmania infantum [21] = assay: Antileishmanial activity against Leishmania infantum infected in BALB/c mouse model of cutaneous leishmaniasis assessed as footpad lesion development at 50 mg/kg/day, ID administered for 21 days and measured after 12 weeks by Giemsa staining based analysis (reference value: 3.61 +/- 0.03); type: functional; conditions: time 21 day
[22] = test system: DHFR (human) versus PTR1 (Leishmania major); assay: Selectivity index, ratio of IC50 for human DHFR to IC50 for Leishmania major PTR1; type: toxicity; conditions: human DHFR enzyme and Leishmania major PTR1 enzyme, read-out: Ratio IC50
Leishmania infantum [23] = assay: Antileishmanial activity against Leishmania infantum infected in BALB/c mouse model of cutaneous leishmaniasis assessed as footpad lesion development at 50 mg/kg/day, ID administered for 21 days and measured after 26 weeks by Giemsa staining based analysis (reference value: 4.91 +/- 0.01); type: functional; conditions: time 21 day

IC50 (Pteridine reductase 1): 680 µM
SMILES: CN(C)c1ncc2nc(NC(=O)c3ccc(Cl)c([N+](=O)[O-])c3)sc2n1
Activity (Leishmania infantum [1]): 28.13
log10 IC50 (µg/mL) (L929): 1.32
IC50 [2]: 21 µg/mL (≈ 55.5 µM)
Activity (Leishmania infantum [3]): 4.53
Activity (Leishmania infantum [4]): 3.09
Activity (Leishmania infantum [5]): Active
Activity (Leishmania infantum [6]): Active
Activity (Leishmania infantum [7]): 1.89
IC50 (Leishmania infantum [8]): 6.77 µg/mL (≈ 17.9 µM)
IC50 (Leishmania tropica): 6.68 µg/mL (≈ 17.6 µM)
Activity (Leishmania infantum [9]): 2.08
Activity (Leishmania infantum [10]): 3.83
Activity (Leishmania infantum [11]): 4.88
Activity (Leishmania infantum [12]): 3.83
Activity (Leishmania infantum [13]): 3.37
Activity (Leishmania infantum [14]): Active
Activity (Leishmania infantum [15]): 1.59
Activity (Leishmania infantum [16]): 4.41
Activity (Leishmania infantum [17]): 28.71
Activity (Leishmania infantum [18]): 2.58
Activity (Leishmania infantum [19]): 30.38
Activity (Leishmania infantum [20]): 4.67
Activity (Leishmania infantum [21]): 3.61
selectivity ratio [22]: 7.02
Activity (Leishmania infantum [23]): 4.7

IC50 (Pteridine reductase 1): 21.3 µM
SMILES: CN1CCN(c2ncc3nc(NC(=O)c4ccc(Cl)c(Cl)c4)sc3n2)CC1
Activity (Leishmania infantum [1]): 22.18
log10 IC50 (µg/mL) (L929): 1.44
IC50 [2]: 27.7 µg/mL (≈ 65.5 µM)
Activity (Leishmania infantum [3]): 4.53
Activity (Leishmania infantum [4]): 3.1
Activity (Leishmania infantum [5]): Active
Activity (Leishmania infantum [6]): inactive
Activity (Leishmania infantum [7]): 1.88
IC50 (Leishmania infantum [8]): 8.28 µg/mL (≈ 19.6 µM)
IC50 (Leishmania tropica): 7.81 µg/mL (≈ 18.4 µM)
Activity (Leishmania infantum [9]): 4.73
Activity (Leishmania infantum [10]): 3.89
Activity (Leishmania infantum [11]): 4.89
Activity (Leishmania infantum [12]): 4.21
Activity (Leishmania infantum [13]): 3.41
Activity (Leishmania infantum [14]): inactive
Activity (Leishmania infantum [15]): 1.61
Activity (Leishmania infantum [16]): 4.4
Activity (Leishmania infantum [17]): 28.73
Activity (Leishmania infantum [18]): 4.78
Activity (Leishmania infantum [19]): 30.3
Activity (Leishmania infantum [20]): 4.69
Activity (Leishmania infantum [21]): 3.61
selectivity ratio [22]: 312
Activity (Leishmania infantum [23]): 4.87

IC50 (Pteridine reductase 1): 123 µM
SMILES: CCOC(=O)N1CCN(c2ncc3nc(NC(=O)c4ccc(Cl)c(Cl)c4)sc3n2)CC1
Activity (Leishmania infantum [1]): 27.35
log10 IC50 (µg/mL) (L929): 1.15
IC50 [2]: 14.1 µg/mL (≈ 29.3 µM)
Activity (Leishmania infantum [3]): 4.52
Activity (Leishmania infantum [4]): 3.1
Activity (Leishmania infantum [5]): Active
Activity (Leishmania infantum [6]): Active
Activity (Leishmania infantum [7]): 1.88
IC50 (Leishmania infantum [8]): 0.042 µg/mL (≈ 0.0873 µM)
IC50 (Leishmania tropica): 0.04 µg/mL (≈ 0.0831 µM)
Activity (Leishmania infantum [9]): 2.42
Activity (Leishmania infantum [10]): 3.81
Activity (Leishmania infantum [11]): 4.9
Activity (Leishmania infantum [12]): 4.2
Activity (Leishmania infantum [13]): 3.39
Activity (Leishmania infantum [14]): Active
Activity (Leishmania infantum [15]): 1.6
Activity (Leishmania infantum [16]): 4.4
Activity (Leishmania infantum [17]): 28.71
Activity (Leishmania infantum [18]): 2.89
Activity (Leishmania infantum [19]): 30.63
Activity (Leishmania infantum [20]): 4.69
Activity (Leishmania infantum [21]): 3.61
selectivity ratio [22]: 42.6
Activity (Leishmania infantum [23]): 4.73

Source: ChEMBL document CHEMBL5352486, “Design, synthesis, in vitro - In vivo biological evaluation of novel thiazolopyrimidine compounds as antileishmanial agent with PTR1 inhibition” (Eur J Med Chem, 2023)
